Assay results: the NIST ThermoML archive (doi:10.1007/s10765-006-0082-x)

Assay: compressibility factor (dimensionless); xn = mol fraction of the nth substance listed
Conditions: Liquid, Burnett expansion method

[N-]=[N+]=O [nitrous oxide] + FC(F)F
Conditions | compressibility factor
303.25 K, 141.8 kPa, x1 = 0.6613 | 0.9915
303.25 K, 151.7 kPa, x1 = 0.3152 | 0.9906
303.25 K, 160.7 kPa, x1 = 0.2248 | 0.991
303.25 K, 174.2 kPa, x1 = 0.5419 | 0.9896
303.25 K, 182.2 kPa, x1 = 0.4308 | 0.9882
303.25 K, 209.6 kPa, x1 = 0.7758 | 0.9883
303.25 K, 211.4 kPa, x1 = 0.6613 | 0.9879
303.25 K, 225.8 kPa, x1 = 0.3152 | 0.9858
303.25 K, 239.5 kPa, x1 = 0.2248 | 0.9872
303.25 K, 259.3 kPa, x1 = 0.5419 | 0.9847
303.25 K, 271.2 kPa, x1 = 0.4308 | 0.9832
303.25 K, 311.9 kPa, x1 = 0.7758 | 0.983
303.25 K, 314.4 kPa, x1 = 0.6613 | 0.9824
303.25 K, 335.5 kPa, x1 = 0.3152 | 0.9789
303.25 K, 356.1 kPa, x1 = 0.2248 | 0.9814
303.25 K, 385.1 kPa, x1 = 0.5419 | 0.9775
303.25 K, 402.6 kPa, x1 = 0.4308 | 0.9756
303.25 K, 462.7 kPa, x1 = 0.7758 | 0.9749
303.25 K, 466.4 kPa, x1 = 0.6613 | 0.974
303.25 K, 496.7 kPa, x1 = 0.3152 | 0.9688
303.25 K, 528.1 kPa, x1 = 0.2248 | 0.9726
303.25 K, 569.8 kPa, x1 = 0.5419 | 0.9668
303.25 K, 595 kPa, x1 = 0.4308 | 0.9638
303.25 K, 683.7 kPa, x1 = 0.7758 | 0.9628
303.25 K, 688.8 kPa, x1 = 0.6613 | 0.9615
303.25 K, 731.3 kPa, x1 = 0.3152 | 0.9534
303.25 K, 779.4 kPa, x1 = 0.2248 | 0.9596
303.25 K, 838.3 kPa, x1 = 0.5419 | 0.9507
303.25 K, 874.1 kPa, x1 = 0.4308 | 0.9464
303.25 K, 1003.6 kPa, x1 = 0.7758 | 0.9446
303.25 K, 1010.4 kPa, x1 = 0.6613 | 0.9427
303.25 K, 1068.3 kPa, x1 = 0.3152 | 0.9309
303.25 K, 1142.3 kPa, x1 = 0.2248 | 0.94
303.25 K, 1222.8 kPa, x1 = 0.5419 | 0.9269
303.25 K, 1272.3 kPa, x1 = 0.4308 | 0.9208
303.25 K, 1459.1 kPa, x1 = 0.7758 | 0.918
303.25 K, 1467.5 kPa, x1 = 0.6613 | 0.9152
303.25 K, 1541.6 kPa, x1 = 0.3152 | 0.8979
303.25 K, 1657.1 kPa, x1 = 0.2248 | 0.9115
303.25 K, 1760.9 kPa, x1 = 0.5419 | 0.8922
303.25 K, 1825.8 kPa, x1 = 0.4308 | 0.8832
303.25 K, 2090.5 kPa, x1 = 0.7758 | 0.8791
303.25 K, 2099 kPa, x1 = 0.6613 | 0.8749
303.25 K, 2185.1 kPa, x1 = 0.3152 | 0.8507
303.25 K, 2366.6 kPa, x1 = 0.2248 | 0.8701
303.25 K, 2486.5 kPa, x1 = 0.5419 | 0.8421
303.25 K, 2565.1 kPa, x1 = 0.4308 | 0.8294
303.25 K, 2929 kPa, x1 = 0.7758 | 0.8233
303.25 K, 2933.8 kPa, x1 = 0.6613 | 0.8174
303.25 K, 3012.1 kPa, x1 = 0.3152 | 0.7838
303.25 K, 3303.6 kPa, x1 = 0.2248 | 0.8119
303.25 K, 3408.6 kPa, x1 = 0.5419 | 0.7716
303.25 K, 3489.6 kPa, x1 = 0.4308 | 0.7542
303.25 K, 3965.1 kPa, x1 = 0.7758 | 0.7449
323.43 K, 176.4 kPa, x1 = 0.5105 | 0.9908
323.43 K, 262.8 kPa, x1 = 0.5105 | 0.987
323.43 K, 391 kPa, x1 = 0.5105 | 0.9814
323.43 K, 579.9 kPa, x1 = 0.5105 | 0.9729
323.43 K, 856.1 kPa, x1 = 0.5105 | 0.96
323.43 K, 1255 kPa, x1 = 0.5105 | 0.9406
323.43 K, 1820.9 kPa, x1 = 0.5105 | 0.9123
323.43 K, 2601.4 kPa, x1 = 0.5105 | 0.8711
323.43 K, 3632.8 kPa, x1 = 0.5105 | 0.8131
323.44 K, 159.9 kPa, x1 = 0.6428 | 0.9917
323.44 K, 170.7 kPa, x1 = 0.7792 | 0.992
323.44 K, 174 kPa, x1 = 0.358 | 0.9909
323.44 K, 238.4 kPa, x1 = 0.6428 | 0.9886
323.44 K, 254.5 kPa, x1 = 0.7792 | 0.9888
323.44 K, 259.3 kPa, x1 = 0.358 | 0.9869
323.44 K, 354.9 kPa, x1 = 0.6428 | 0.9837
323.44 K, 378.9 kPa, x1 = 0.7792 | 0.9837
323.44 K, 385.6 kPa, x1 = 0.358 | 0.9809
323.44 K, 527.1 kPa, x1 = 0.6428 | 0.9764
323.44 K, 562.3 kPa, x1 = 0.7792 | 0.9759
323.44 K, 571.6 kPa, x1 = 0.358 | 0.972
323.44 K, 779.5 kPa, x1 = 0.6428 | 0.9653
323.44 K, 831.2 kPa, x1 = 0.7792 | 0.9642
323.44 K, 843.2 kPa, x1 = 0.358 | 0.9583
323.44 K, 1145.9 kPa, x1 = 0.6428 | 0.9485
323.44 K, 1221 kPa, x1 = 0.7792 | 0.9467
323.44 K, 1235.2 kPa, x1 = 0.358 | 0.9384
323.44 K, 1669.1 kPa, x1 = 0.6428 | 0.9234
323.44 K, 1777.2 kPa, x1 = 0.7792 | 0.921
323.44 K, 1790.3 kPa, x1 = 0.358 | 0.9091
323.44 K, 2399.2 kPa, x1 = 0.6428 | 0.8872
323.44 K, 2551 kPa, x1 = 0.7792 | 0.8837
323.44 K, 2553.4 kPa, x1 = 0.358 | 0.8666
323.44 K, 3379.9 kPa, x1 = 0.6428 | 0.8354
323.44 K, 3557 kPa, x1 = 0.358 | 0.8069
323.44 K, 3585.4 kPa, x1 = 0.7792 | 0.8302
343.87 K, 201 kPa, x1 = 0.7837 | 0.9917
343.87 K, 299.8 kPa, x1 = 0.7837 | 0.9888
343.87 K, 446.5 kPa, x1 = 0.7837 | 0.9842
343.87 K, 663 kPa, x1 = 0.7837 | 0.9769
343.87 K, 980.8 kPa, x1 = 0.7837 | 0.966
343.87 K, 1442.6 kPa, x1 = 0.7837 | 0.9497
343.87 K, 2103.1 kPa, x1 = 0.7837 | 0.9254
343.87 K, 3026.4 kPa, x1 = 0.7837 | 0.8901
343.87 K, 4273 kPa, x1 = 0.7837 | 0.8401
343.95 K, 79.8 kPa, x1 = 0.6698 | 0.9965
343.95 K, 90.5 kPa, x1 = 0.2403 | 0.991
343.95 K, 92.3 kPa, x1 = 0.4174 | 0.9925
343.95 K, 119.5 kPa, x1 = 0.6698 | 0.9953
343.95 K, 128.4 kPa, x1 = 0.536 | 0.9933
343.95 K, 135.6 kPa, x1 = 0.2403 | 0.991
343.95 K, 138.2 kPa, x1 = 0.4174 | 0.9917
343.95 K, 178.9 kPa, x1 = 0.6698 | 0.9945
343.95 K, 192 kPa, x1 = 0.536 | 0.9915
343.95 K, 202.9 kPa, x1 = 0.2403 | 0.9897
343.95 K, 206.8 kPa, x1 = 0.4174 | 0.9901
343.95 K, 266.9 kPa, x1 = 0.6698 | 0.9901
343.95 K, 287 kPa, x1 = 0.536 | 0.9886
343.95 K, 303.2 kPa, x1 = 0.2403 | 0.9866
343.95 K, 308.9 kPa, x1 = 0.4174 | 0.9871
343.95 K, 398.2 kPa, x1 = 0.6698 | 0.9857
343.95 K, 428 kPa, x1 = 0.536 | 0.9839
343.95 K, 451.8 kPa, x1 = 0.2403 | 0.9812
343.95 K, 460.6 kPa, x1 = 0.4174 | 0.9821
343.95 K, 592.7 kPa, x1 = 0.6698 | 0.9789
343.95 K, 636.6 kPa, x1 = 0.536 | 0.9767
343.95 K, 671.3 kPa, x1 = 0.2403 | 0.9728
343.95 K, 684.7 kPa, x1 = 0.4174 | 0.9741
343.95 K, 879 kPa, x1 = 0.6698 | 0.9688
343.95 K, 943.2 kPa, x1 = 0.536 | 0.9656
343.95 K, 992.7 kPa, x1 = 0.2403 | 0.9599
343.95 K, 1013 kPa, x1 = 0.4174 | 0.9617
343.95 K, 1296.6 kPa, x1 = 0.6698 | 0.9537
343.95 K, 1389 kPa, x1 = 0.536 | 0.9489
343.95 K, 1457.5 kPa, x1 = 0.2403 | 0.9405
343.95 K, 1488.7 kPa, x1 = 0.4174 | 0.9431
343.95 K, 1897.6 kPa, x1 = 0.6698 | 0.9313
343.95 K, 2027.4 kPa, x1 = 0.536 | 0.9241
343.95 K, 2117.9 kPa, x1 = 0.2403 | 0.9119
343.95 K, 2166.3 kPa, x1 = 0.4174 | 0.9157
343.95 K, 2743.8 kPa, x1 = 0.6698 | 0.8986
343.95 K, 2920 kPa, x1 = 0.536 | 0.8882
343.95 K, 3030.8 kPa, x1 = 0.2403 | 0.8708
343.95 K, 3105.8 kPa, x1 = 0.4174 | 0.8761
343.95 K, 3898.2 kPa, x1 = 0.6698 | 0.8519
343.95 K, 4125.5 kPa, x1 = 0.536 | 0.8374
343.95 K, 4242.9 kPa, x1 = 0.2403 | 0.8135
343.95 K, 4359.1 kPa, x1 = 0.4174 | 0.8205
